Data reported in patent publication US10435399B2, “HDAC6 inhibitory heterocyclic compound” (TAKEDA PHARMACEUTICAL COMPANY LIMITED, priority 2017, dated 2019).

What follows are compounds tested against T1, HDAC6 enzyme (Homo sapiens, UniProt Q9UBN7) (assay: HDAC6 enzyme inhibitory activity (HDAC-Glo I/II Assay kit)). Conditions: 10 μM; wells without enzyme = 100% inhibition.
T1 construct: transducing full length HDAC6 gene into Sf-9 insect cells; GST; purchased SignalChem; host or cells: Sf-9 insect cells
T1 sequence (Q9UBN7 1-1215): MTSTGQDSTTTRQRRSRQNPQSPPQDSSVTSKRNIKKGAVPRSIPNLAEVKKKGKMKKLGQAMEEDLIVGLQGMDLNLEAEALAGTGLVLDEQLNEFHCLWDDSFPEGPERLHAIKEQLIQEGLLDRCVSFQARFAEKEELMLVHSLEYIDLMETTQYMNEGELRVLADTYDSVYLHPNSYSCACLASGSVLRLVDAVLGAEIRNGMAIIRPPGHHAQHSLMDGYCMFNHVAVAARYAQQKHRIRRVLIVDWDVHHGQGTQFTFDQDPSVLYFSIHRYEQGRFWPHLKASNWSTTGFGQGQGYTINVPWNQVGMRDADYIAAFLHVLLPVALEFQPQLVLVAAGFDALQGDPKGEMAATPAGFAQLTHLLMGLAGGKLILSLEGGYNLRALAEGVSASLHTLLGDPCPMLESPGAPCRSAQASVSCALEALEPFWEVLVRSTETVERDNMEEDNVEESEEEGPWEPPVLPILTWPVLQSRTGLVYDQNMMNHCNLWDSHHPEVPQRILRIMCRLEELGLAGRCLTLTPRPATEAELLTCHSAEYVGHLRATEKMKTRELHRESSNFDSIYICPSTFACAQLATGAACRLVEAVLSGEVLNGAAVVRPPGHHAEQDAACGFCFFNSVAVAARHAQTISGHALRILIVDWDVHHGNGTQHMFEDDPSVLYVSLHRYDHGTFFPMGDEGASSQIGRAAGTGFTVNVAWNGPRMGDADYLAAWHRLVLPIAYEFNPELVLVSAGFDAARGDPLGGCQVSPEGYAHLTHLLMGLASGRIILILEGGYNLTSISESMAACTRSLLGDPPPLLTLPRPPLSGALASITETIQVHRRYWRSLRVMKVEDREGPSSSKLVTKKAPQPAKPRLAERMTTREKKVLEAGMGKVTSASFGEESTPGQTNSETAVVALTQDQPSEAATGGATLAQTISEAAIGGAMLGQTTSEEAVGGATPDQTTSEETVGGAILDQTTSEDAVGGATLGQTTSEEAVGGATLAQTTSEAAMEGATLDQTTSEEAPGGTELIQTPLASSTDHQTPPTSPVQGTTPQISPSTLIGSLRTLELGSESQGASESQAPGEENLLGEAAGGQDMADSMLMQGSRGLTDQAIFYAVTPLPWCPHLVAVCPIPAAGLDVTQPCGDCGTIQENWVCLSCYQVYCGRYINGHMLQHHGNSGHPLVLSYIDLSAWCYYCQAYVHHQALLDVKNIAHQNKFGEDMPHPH
Format: biochemical
Description: HDAC6 enzyme prepared by transducing full length HDAC6 gene into Sf-9 insect cells and purifying by GST affinity column were purchased from SignalChem. Using this enzyme, HDAC6 enzyme inhibitory activities of the compound of the present invention were evaluated. Enzymes were used after preserved at −70° C. HDAC6 enzyme inhibitory activity of the compound of the present invention was measured using HDAC-Glo™ I/II Assay kit (Promega) according to the following experimental method. The test compound diluted with assay buffer (24 mM Tris-HCl (pH 7.5), 1 mM MgCl2, 0.35 mM KCl, 135 mM NaCl, 0.6 mM Glutathione, 0.01% Tween-20) was added to a 384-well plate by each 2 μL. Then, HDAC6 enzyme solution diluted with assay buffer was added thereto by each 4 μL, and the plate was incubated at room temperature for 60 min. After incubated, HDAC substrate-Developer solution prepared according to Promega protocol attached to the assay kit was added to the 384-well plate by each 2 μL, and the enzyme reaction was started. After reacting at room temperature for 20 min, luminescence level was measured using plate reader Envision (PerkinElmer). The inhibitory activity of each compound of Example was calculated as a relative activity value when luminescence level in wells without enzyme is considered as 100% inhibition.

HDAC6 inhibitory rate (%) (10 μM) | SMILES
99% | O=C1c2cc(-c3nnc(C(F)F)o3)ccc2CN1[C@@H]1CCC(F)(F)C[C@@H]1c1ccccn1 (relative stereo) [Example 591, 6-(5-(difluoromethyl)-1,3,4-oxadiazol-2-yl)-2-((1R*,2S*)-4,4-difluoro-2-(pyridin-2-yl)cyclohexyl)isoindolin-1-one (optical isomer)]

Same assay, conditions: 10 μM; wells without enzyme = 100% inhibition; read-out: HDAC6 inhibitory rate (%) (10 μM)

SMILES | inhibition at 10 µM
O=C(NC1CC(F)(F)CC[C@H]1N1Cc2ccc(-c3nnc(C(F)F)o3)cc2C1=O)OCc1ccccc1 (stereo in doubt) [Example 517, benzyl ((1S,2R)-2-(6-(5-(difluoromethyl)-1,3,4-oxadiazol-2-yl)-1-oxo-1,3-dihydro-2H-isoindol-2-yl)-5,5-difluorocyclohexyl) carbamate] | 100%
O=C1CCCN1[C@@H]1COCC[C@H]1N1Cc2ccc(-c3nnc(C(F)F)o3)cc2C1=O [Example 1, 6-(5-(difluoromethyl)-1,3,4-oxadiazol-2-yl)-2-((3S,4R)-3-(2-oxopyrrolidin-1-yl)tetrahydro-2H-pyran-4-yl)isoindolin-1-one] | 101%
O=C1CCCN1[C@@H]1CCCC[C@H]1N1Cc2ccc(-c3nnc(C(F)F)o3)cc2C1=O [Example 2, 6-(5-(difluoromethyl)-1,3,4-oxadiazol-2-yl)-2-((1R,2R)-2-(2-oxopyrrolidin-1-yl)cyclohexyl)isoindolin-1-one] | 99%
O=C1c2cc(-c3nnc(C(F)F)o3)ccc2CN1[C@@H]1CCCC[C@H]1N1CCCS1(=O)=O [Example 4, 6-(5-(difluoromethyl)-1,3,4-oxadiazol-2-yl)-2-((1R,2R)-2-(1,1-dioxido-1,2-thiazolidin-2-yl)cyclohexyl)isoindolin-1-one] | 99%
O=C1c2cc(-c3nnc(C(F)F)o3)ccc2CN1[C@@H]1CCCC[C@H]1NC(=O)C(F)(F)F [Example 6, N-((1R,2R)-2-(6-(5-(difluoromethyl)-1,3,4-oxadiazol-2-yl)-1-oxo-1,3-dihydro-2H-isoindol-2-yl)cyclohexyl)-2,2,2-trifluoroacetamide] | 102%
O=C(CC(F)(F)F)N[C@@H]1CCCC[C@H]1N1Cc2ccc(-c3nnc(C(F)F)o3)cc2C1=O [Example 13, N-((1R,2R)-2-(6-(5-(difluoromethyl)-1,3,4-oxadiazol-2-yl)-1-oxo-1,3-dihydro-2H-isoindol-2-yl)cyclohexyl)-3,3,3-trifluoropropanamide] | 101%
O=C1c2ccccc2CN1[C@@H]1CCCC[C@H]1N1Cc2ccc(-c3nnc(C(F)F)o3)cc2C1=O [Example 14, 6-(5-(difluoromethyl)-1,3,4-oxadiazol-2-yl)-2-((1R,2R)-2-(1-oxo-1,3-dihydro-2H-isoindol-2-yl)cyclohexyl)isoindolin-1-one] | 100%
CC1(C(=O)N[C@@H]2CCCC[C@H]2N2Cc3ccc(-c4nnc(C(F)F)o4)cc3C2=O)COC1 [Example 16, N-((1R,2R)-2-(6-(5-(difluoromethyl)-1,3,4-oxadiazol-2-yl)-1-oxo-1,3-dihydro-2H-isoindol-2-yl)cyclohexyl)-3-methyloxetane-3-carboxamide] | 100%
N#CC1(C(=O)N[C@@H]2CCCC[C@H]2N2Cc3ccc(-c4nnc(C(F)F)o4)cc3C2=O)CC1 [Example 17, 1-cyano-N-((1R,2R)-2-(6-(5-(difluoromethyl)-1,3,4-oxadiazol-2-yl)-1-oxo-1,3-dihydro-2H-isoindol-2-yl)cyclohexyl)cyclopropanecarboxamide] | 101%
O=C(N[C@@H]1CCCC[C@H]1N1Cc2ccc(-c3nnc(C(F)F)o3)cc2C1=O)[C@@H]1CC1(F)F [Example 18, (1S)—N-((1R,2R)-2-(6-(5-(difluoromethyl)-1,3,4-oxadiazol-2-yl)-1-oxo-1,3-dihydro-2H-isoindol-2-yl)cyclohexyl)-2,2-difluorocyclopropanecarboxamide] | 100%
O=C1CCCCN1[C@@H]1CCCC[C@H]1N1Cc2ccc(-c3nnc(C(F)F)o3)cc2C1=O [Example 20, 6-(5-(difluoromethyl)-1,3,4-oxadiazol-2-yl)-2-((1R,2R)-2-(2-oxopiperidin-1-yl)cyclohexyl)isoindolin-1-one] | 100%

Now from value to compound:

inhibition at 10 µM | SMILES
99% | CC(C)(C)OC(=O)N[C@@H]1CCCC[C@H]1N1Cc2ccc(-c3nnc(C(F)F)o3)cc2C1=O [Example 3, tert-butyl ((1R,2R)-2-(6-(5-(difluoromethyl)-1,3,4-oxadiazol-2-yl)-1-oxo-1,3-dihydro-2H-isoindol-2-yl)cyclohexyl)carbamate]
100% | CC(=O)N[C@@H]1CCCC[C@H]1N1Cc2ccc(-c3nnc(C(F)F)o3)cc2C1=O [Example 5, N-((1R,2R)-2-(6-(5-(difluoromethyl)-1,3,4-oxadiazol-2-yl)-1-oxo-1,3-dihydro-2H-isoindol-2-yl)cyclohexyl)acetamide]
99% | CCC(=O)N[C@@H]1CCCC[C@H]1N1Cc2ccc(-c3nnc(C(F)F)o3)cc2C1=O [Example 7, N-((1R,2R)-2-(6-(5-(difluoromethyl)-1,3,4-oxadiazol-2-yl)-1-oxo-1,3-dihydro-2H-isoindol-2-yl)cyclohexyl)propanamide]
101% | O=C(N[C@@H]1CCCC[C@H]1N1Cc2ccc(-c3nnc(C(F)F)o3)cc2C1=O)OC1CC1 [Example 8, cyclopropyl ((1R,2R)-2-(6-(5-(difluoromethyl)-1,3,4-oxadiazol-2-yl)-1-oxo-1,3-dihydro-2H-isoindol-2-yl)cyclohexyl)carbamate]
102% | CC(C)C(=O)N[C@@H]1CCCC[C@H]1N1Cc2ccc(-c3nnc(C(F)F)o3)cc2C1=O [Example 9, N-((1R,2R)-2-(6-(5-(difluoromethyl)-1,3,4-oxadiazol-2-yl)-1-oxo-1,3-dihydro-2H-isoindol-2-yl)cyclohexyl)-2-methylpropanamide]
99% | COC(=O)N[C@@H]1CCCC[C@H]1N1Cc2ccc(-c3nnc(C(F)F)o3)cc2C1=O [Example 10, methyl((1R,2R)-2-(6-(5-(difluoromethyl)-1,3,4-oxadiazol-2-yl)-1-oxo-1,3-dihydro-2H-isoindol-2-yl)cyclohexyl)carbamate]
98% | O=C(N[C@@H]1CCCC[C@H]1N1Cc2ccc(-c3nnc(C(F)F)o3)cc2C1=O)C1CC1 [Example 11, N-((1R,2R)-2-(6-(5-(difluoromethyl)-1,3,4-oxadiazol-2-yl)-1-oxo-1,3-dihydro-2H-isoindol-2-yl)cyclohexyl)cyclopropanecarboxamide]
100% | O=C(N[C@@H]1CCCC[C@H]1N1Cc2ccc(-c3nnc(C(F)F)o3)cc2C1=O)C1CCC1 [Example 12, N-((1R,2R)-2-(6-(5-(difluoromethyl)-1,3,4-oxadiazol-2-yl)-1-oxo-1,3-dihydro-2H-isoindol-2-yl)cyclohexyl)cyclobutanecarboxamide]
98% | CC1(C(=O)N[C@@H]2CCCC[C@H]2N2Cc3ccc(-c4nnc(C(F)F)o4)cc3C2=O)CC1 [Example 15, N-((1R,2R)-2-(6-(5-(difluoromethyl)-1,3,4-oxadiazol-2-yl)-1-oxo-1,3-dihydro-2H-isoindol-2-yl)cyclohexyl)-1-methylcyclopropanecarboxamide]
101% | O=C1c2cc(-c3nnc(C(F)F)o3)ccc2CN1[C@@H]1CCCC[C@H]1NC(=O)C1(F)CC1 [Example 19, N-((1R,2R)-2-(6-(5-(difluoromethyl)-1,3,4-oxadiazol-2-yl)-1-oxo-1,3-dihydro-2H-isoindol-2-yl)cyclohexyl)-1-fluorocyclopropanecarboxamide]
